According to EP4574149A1, “COMPOSITION OF RAPAMYCIN, DIMETHYLSULPHOXIDE AND WATER FOR USE IN THE TREATMENT OF FATTY LIVER DISEASE” (Assistance Publique - Hôpitaux de Paris, priority 2023, dated 2025):

How the values were obtained:
tissus hépatiques = assay: Defatting effect of rapamycin on hepatic tissues, liver slices (Example 2); assay type: cell-based; conditions: rapamycine 200nM, read-out: diminution du taux de triglycérides intracellulaires par rapport au contrôle
Description: (§1) La rapamycine a été évaluée sur des cultures d'hépatocytes et sur tissus hépatiques (tranches de foies permettant de garder la structure hépatique). Pour une concentration de rapamycine à 200nM, il était observé une diminution de 19% du taux de triglycérides intracellulaires par rapport au contrôle dans les hépatocytes et de 38% dans les tissus hépatiques. Ces résultats répétés plusieurs fois ont permis de confirmer la preuve de concept de l'effet de la rapamycine sur l'effet « dégraissant ».

[1] = Perfusion circuit with pig liver: pharmacokinetics of rapamycin; assay type: in vitro ADME, cochon; conditions: pig liver on perfusion machine
Description: Le même protocole de perfusion a été utilisé mais avec un foie animal. Celui-ci a été prélèvé chez un cochon en arrêt cardiaque puis préservé dans de la glace. Il a ensuite été mis sur machine de perfusion, initialement en hypothermie (4°C) pendant 2 heures puis à 37°C pendant 12 heures avec une phase de réchauffement intermédiaire (sub normothermie, 21°C). La rapamycine était injectée dans le circuit 2 heures après le début de la phase de normothermie. Neuf expériences ont été réalisées. L'objectif était d'avoir une étude pharmacocinétique de la rapamycine.

[2] = Perfusion circuit without organ: rapamycin concentration in whole blood perfusate; assay type: in vitro ADME, humain; conditions: whole human blood perfusate at 37°C, no organ; theoretical target 180 ng/mL; 4 experiments
Description: Une machine de perfusion hépatique a été utilisée avec du perfusat constitué de sang total humain maintenu à 37°C. La rapamycine a été injectée directement dans le circuit de perfusion. Des prélèvements étaient réalisés à intervalles réguliers pour doser la molécule. L'expérience a été réalisée 4 fois, l'objectif étant de valider la concentration cible théorique de 180 ng/mL définie à partir des études précédentes d'efficacité et de toxicité.

foies humains = assay: Perfusion circuit with steatotic human livers: intracellular triglycerides and pharmacokinetics; conditions: for diminution du taux de triglycérides intra cellulaires: steatosis > 50%
From the text: De la même manière, l'expérience a été réalisée avec deux foies humains jugés non transplantables et utilisés à visée scientifique après autorisation de l'Agence de Biomédecine. […] L'évaluation de la viabilité de ces deux organes ont été faites selon des critères validés en pratique clinique. […] Pour ce faire, les triglycérides intra cellulaires ont été dosés.

[3] = in DMSO (Simamora P et al., 2001); cited from earlier work
hépatocytes = assay: Defatting effect of rapamycin on hepatocyte cultures (Example 2); assay type: cell-based; conditions: rapamycine 200nM, hepatocytes, read-out: diminution du taux de triglycérides intracellulaires par rapport au contrôle
Description: as §1

[4] = Solubility study of rapamycin in DMSO/H2O mixtures; assay type: physicochemical
Description: Une étude de solubilité a été réalisée sur des mélanges DMSO/H2O, de 40% à 100% (v/v) en DMSO et des concentrations en rapamycine comprises entre 0,4 et 4 mg/mL.
L'évaluation de la solubilisation de rapamycine en fonction de différentes concentrations de DMSO est présentée au Tableau 3 ci-dessous : Tableau 3 : Evaluation de la solubilisation de rapamycine en fonction de différentes concentrations de DMSO.
A la suite de ces résultats, une nouvelle étude a été lancée sur un intervalle plus restreint en DMSO, avec 3 niveaux de concentrations (70%; 85%; 100%) et les 3 mêmes niveaux de rapamycine (0,4; 1; 4 mg/mL) (Tableau 4). Tableau 4 : Evaluation de la solubilisation de rapamycine dans des concentrations de DMSO à 70%, 85% et 100%.

## CO[C@H]1C[C@@H]2CC[C@@H](C)[C@@](O)(O2)C(=O)C(=O)N2CCCC[C@H]2C(=O)O[C@H]([C@H](C)C[C@@H]2CC[C@@H](O)[C@H](OC)C2)CC(=O)[C@H](C)/C=C(\C)[C@@H](O)[C@@H](OC)C(=O)[C@H](C)C[C@H](C)/C=C/C=C/C=C/1C [Rapamycine, rapamycine]
Tissus hépatiques
  inhibition at 0.2 µM: 38%
[1]; bile, increases during perfusion
  time after injection from which rapamycin is found in bile: 1 heure
[1]; whole blood and plasma, 37°C, read-out: pic de concentration (time after injection) (converted)
  Tmax: 5 min
[2]
  concentration moyenne de rapamycine: 0.15 ± 0.03 µg/mL
Foies humains; foie N°1, 9 heures after injection of rapamycin
  diminution du taux de triglycérides intra cellulaires: 39%
Foies humains; foie N°2
  diminution du taux de triglycérides intra cellulaires: 31%
Foies humains; human livers on perfusion machine
  pharmacocinétique: identique à celle observée lors de la perfusion des foies de cochon
[3]
  solubilité: > 250 mg/mL
hépatocytes
  inhibition at 0.2 µM: 19%
[4]; DMSO/H2O 40 % volumique, [Rapamycine] 0,4 mg/mL
  Solubilité à température ambiante: Non (aspect laiteux avec cristaux
[4]; DMSO/H2O 40 % volumique, [Rapamycine] 1 mg/mL
  Solubilité à température ambiante: Non (aspect laiteux avec cristaux
[4]; DMSO/H2O 40 % volumique, [Rapamycine] 4 mg/mL
  Solubilité à température ambiante: Non (aspect laiteux avec cristaux
[4]; DMSO/H2O 60 % volumique, [Rapamycine] 0,4 mg/mL
  Solubilité à température ambiante: Oui
[4]; DMSO/H2O 60 % volumique, [Rapamycine] 1 mg/mL
  Solubilité à température ambiante: Oui
[4]; DMSO/H2O 60 % volumique, [Rapamycine] 4 mg/mL
  Solubilité à température ambiante: Non (aspect laiteux avec cristaux
[4]; DMSO/H2O 80 % volumique, [Rapamycine] 0,4 mg/mL
  Solubilité à température ambiante: Oui
[4]; DMSO/H2O 80 % volumique, [Rapamycine] 1 mg/mL
  Solubilité à température ambiante: Oui
[4]; DMSO/H2O 80 % volumique, [Rapamycine] 4 mg/mL
  Solubilité à température ambiante: Oui
[4]; DMSO/H2O 100 % volumique, [Rapamycine] 0,4 mg/mL
  Solubilité à température ambiante: Oui
[4]; DMSO/H2O 100 % volumique, [Rapamycine] 1 mg/mL
  Solubilité à température ambiante: Oui
[4]; DMSO/H2O 100 % volumique, [Rapamycine] 4 mg/mL
  Solubilité à température ambiante: Oui
[4]; second study (Tableau 4), DMSO/H2O 70 % volumique, [Rapamycine] 0,4 mg/mL
  Solubilité à température ambiante: Oui
[4]; second study (Tableau 4), DMSO/H2O 70 % volumique, [Rapamycine] 1 mg/mL
  Solubilité à température ambiante: Oui
[4]; second study (Tableau 4), DMSO/H2O 70 % volumique, [Rapamycine] 4 mg/mL
  Solubilité à température ambiante: Oui
[4]; second study (Tableau 4), DMSO/H2O 85 % volumique, [Rapamycine] 0,4 mg/mL
  Solubilité à température ambiante: Oui
[4]; second study (Tableau 4), DMSO/H2O 85 % volumique, [Rapamycine] 1 mg/mL
  Solubilité à température ambiante: Oui
[4]; second study (Tableau 4), DMSO/H2O 85 % volumique, [Rapamycine] 4 mg/mL
  Solubilité à température ambiante: Oui
[4]; second study (Tableau 4), DMSO/H2O 100 % volumique, [Rapamycine] 0,4 mg/mL
  Solubilité à température ambiante: Oui
[4]; second study (Tableau 4), DMSO/H2O 100 % volumique, [Rapamycine] 1 mg/mL
  Solubilité à température ambiante: Oui
[4]; second study (Tableau 4), DMSO/H2O 100 % volumique, [Rapamycine] 4 mg/mL
  Solubilité à température ambiante: Oui
